{"source": "patent US20180289780A1", "about": "“OSTEOPONTIN AND THROMBIN-CLEAVED FRAGMENT THEREOF AND THEIR USE IN ATHEROSCLEROSIS PREVENTION, INFLAMMATION REDUCTION AND IMPROVING PLAQUE STABILITY” (CardioVax, LLC, priority 2017, published 2018)", "key": {"ApoE-/- mice [1]": {"system": "ApoE-/- mice", "test": "Plasma cytokine levels (Bioplex multiplex) in immunized ApoE-/- mice on HFD", "assay_type": "in vivo", "conditions": "mean ± SD", "text": "(§1) Female C57BL/6 Apoe^-/- mice (Jaxmice, USA) were immunized with tcOPN-PADRE or equal amounts of PADRE peptide using Alum (Pierce) as adjuvant, followed by two booster injections after two and five weeks (FIG. 1B). During the advanced study all mice received a final booster one weak prior to termination in order to analyze the effect on immune cells (FIG. 1B). Mice were fed a high-fat diet (HFD), 21% cocoa fat, 0.15% cholesterol, starting one week after the last booster injection. For early assessment of atherosclerosis mice were kept on HFD during 8 weeks before sacrifice. Mice that were allowed to develop a more advanced stage of atherosclerosis were kept on HFD during 15 weeks (FIG. 1B). For early atherosclerosis assessment two different lengths of immunized tcOPN-PADRE peptides (SEQ ID Nos: 6 and 7) were evaluated, while for advanced atherosclerosis assessment mice were immunized with shorter tcOPN-PADRE (SEQ ID No: 6) which was based on a tcOPN of 11 amino acids (SEQ ID NO: 4). Tissue was preserved as described previously. All animal experiments were approved by the Animal Care and Use Committee. Cytokine levels for IL-1β, IL-2, IL-4, IL-5, IL-6, IL-10, IL-13, IL-17, IL-12(p70), IFNγ, TNFα and MCP-1 were analyzed in plasma using Bioplex multiplex technology (Bio-Rad) according to manufacturer's protocol. Plasma levels for OPN and tcOPN were analyzed by ELISA according to manufacturer's protocol (IBL International). Plasma cholesterol was quantified colorimetrically using Infinity Cholesterol (ThermoTrace)."}, "[2]": {"system": "tcOPN-PADRE peptide, PADRE peptide, tcOPN protein or OPN protein", "test": "Antibody ELISA on plasma of immunized mice", "assay_type": "in vivo", "conditions": "plasma of immunized ApoE-/- mice", "method": "tcOPN-PADRE peptide, PADRE peptide, tcOPN protein or OPN protein was used for coating (20 μg/mL of each in PBS) microtiter plates (Nunc MaxiSorp, Nunc) over night at 4° C. Coated plates were washed with PBS with 0.05% Tween-20 and thereafter blocked with SuperBlock in Tris-buffered saline (TBS, Pierce) during 30 minutes at room temperature (RT) followed by an incubation of mouse plasma diluted 1:100 or 1:1000 in PBS-0.05% Tween-20 for 2 hours at RT. After rinsing, bound antibodies were detected using biotinylated goat anti-mouse IgGla or IgG2 antibodies (Jackson ImmunoResearch) that were incubated for 2 hours at RT. After washing, alkaline phosphatase-conjugated streptavidin (Sigma) was added and color reaction was developed using phosphatase substrate kit (Pierce). The absorbance (405 nm) was measured after 1 hour of incubation at room temperature. Mean values were calculated after subtraction of background absorbance."}, "[3]": {"system": "Blood monocytes from ApoE-/- mice (CD11b+)", "test": "Transwell migration assay, blood monocytes", "assay_type": "cell-based", "conditions": "10 ng/ml in lower chamber, 2 hours, vs buffer alone", "method": "(§2) Monocyte cell migration was quantified in 24-well transwell inserts with polycarbonate filters (8-μm pore size) (Corning Costar). THP-1 monocytes (0.5×10^4 in 100 μl of RPMI 1640 medium) or murine blood cells from ApoE^-/- mice (25 μl in 75 μl of RPMI 1640 medium) were added to the upper chamber of the insert. The lower chamber contained 600 μl of RPMI 1640 with or without 10ng/ml tcOPN or OPN protein. The plates were incubated at 37° C. in 5% CO2 during 2 hours and migrated cells in the lower chamber were counted using flow cytometry. Blood monocytes were characterized with the monocyte FACS panel described above. In blocking experiment, tcOPN protein were pre-incubated with plasma (dilution 1:100) pooled from PADRE ctrl mice or tcOPN-PADRE mice over night at 4° C. prior to the migration experiment."}, "[4]": {"system": "human monocyte THP-1 cells", "test": "Transwell migration assay, THP-1", "assay_type": "cell-based", "conditions": "10 ng/ml in lower chamber, 2 hours, vs buffer alone or full-length OPN", "method": "as §2"}, "ApoE-/- mice [5]": {"system": "ApoE-/- mice", "test": "Atherosclerotic plaque area: en face descending aorta, aortic arch, subvalvular lesions", "assay_type": "in vivo", "conditions": "additional early study, short peptide, HFD 8 weeks", "text": "as §1, with “All animal experiments were approved by the Animal Care and Use Committee.” left out, “Plasma cholesterol was quantified colorimetrically using Infinity Cholesterol (ThermoTrace).” left out"}}, "data": [{"substance": "AKFVAAWTLKAAA (PADRE)", "values": [{"measurement": "Plasma IFNγ", "setting": "ApoE-/- mice [1]; 8 week HFD", "result": "312 ± 225", "unit": "pg/mL"}, {"measurement": "Plasma IL-2", "setting": "ApoE-/- mice [1]; 8 week HFD", "result": "45 ± 15", "unit": "pg/mL"}, {"measurement": "Plasma IL-5", "setting": "ApoE-/- mice [1]; 8 week HFD", "result": "111 ± 56", "unit": "pg/mL"}, {"measurement": "Plasma IL-6", "setting": "ApoE-/- mice [1]; 8 week HFD", "result": "33 ± 35", "unit": "pg/mL"}, {"measurement": "Plasma IL-10", "setting": "ApoE-/- mice [1]; 8 week HFD", "result": "77 ± 32", "unit": "pg/mL"}, {"measurement": "Plasma IL-13", "setting": "ApoE-/- mice [1]; 8 week HFD", "result": "234 ± 129", "unit": "pg/mL"}, {"measurement": "Plasma IL-17", "setting": "ApoE-/- mice [1]; 8 week HFD", "result": "162 ± 62", "unit": "pg/mL"}, {"measurement": "Plasma TNFα", "setting": "ApoE-/- mice [1]; 8 week HFD", "result": "26 ± 0", "unit": "pg/mL"}, {"measurement": "Plasma MCP-1", "setting": "ApoE-/- mice [1]; 8 week HFD, * significant difference PADRE vs tcOPN-PADRE", "result": "835 ± 187", "unit": "pg/mL"}, {"measurement": "Plasma IFNγ", "setting": "ApoE-/- mice [1]; 15 week HFD", "result": "48 ± 24", "unit": "pg/mL"}, {"measurement": "Plasma IL-2", "setting": "ApoE-/- mice [1]; 15 week HFD", "result": "43 ± 21", "unit": "pg/mL"}, {"measurement": "Plasma IL-4", "setting": "ApoE-/- mice [1]; 15 week HFD", "result": "21 ± 7", "unit": "pg/mL"}, {"measurement": "Plasma IL-5", "setting": "ApoE-/- mice [1]; 15 week HFD", "result": "110 ± 32", "unit": "pg/mL"}, {"measurement": "Plasma IL-6", "setting": "ApoE-/- mice [1]; 15 week HFD", "result": "28 ± 11", "unit": "pg/mL"}, {"measurement": "Plasma IL-10", "setting": "ApoE-/- mice [1]; 15 week HFD", "result": "172 ± 64", "unit": "pg/mL"}, {"measurement": "Plasma IL-13", "setting": "ApoE-/- mice [1]; 15 week HFD", "result": "1153 ± 439", "unit": "pg/mL"}, {"measurement": "Plasma IL-17", "setting": "ApoE-/- mice [1]; 15 week HFD", "result": "148 ± 27", "unit": "pg/mL"}, {"measurement": "Plasma MCP-1", "setting": "ApoE-/- mice [1]; 15 week HFD", "result": "703 ± 386", "unit": "pg/mL"}, {"measurement": "Plasma TNFα", "setting": "ApoE-/- mice [1]; 15 week HFD", "result": "712 ± 249", "unit": "pg/mL"}, {"measurement": "Antibodies (IgG) against the tcOPN-PADRE peptide", "setting": "[2]", "result": "did not develop antibodies"}, {"measurement": "Antibodies recognizing PADRE peptide", "setting": "[2]", "result": "low levels"}]}, {"substance": "tcOPN: recombinant OPN cleaved with thrombin, C-terminal fragment removed (SLAYGLR)", "values": [{"measurement": "Monocyte migration towards the protein", "setting": "[3]", "result": "increased migration"}, {"measurement": "Monocyte migration towards the protein", "setting": "[4]", "result": "increased migration"}]}, {"substance": "AKFVAAWTLKAAAGRGDSLAYGLR (PADRE-tcOPN short) [short tcOPN-PADRE peptide]", "values": [{"measurement": "Plaque area in the aortic arch, en face preparations", "setting": "ApoE-/- mice [5]", "result": "smaller plaque area"}, {"measurement": "Subvalvular plaque area", "setting": "ApoE-/- mice [5]", "result": "recapitulated the difference"}]}]}
